Results taken from patent US11396016B2, “System and method for a biomimetic fluid processing” (The Brigham and Women's Hospital, Inc., priority 2013, dated 2022).

System: MKs
Test: Shear-induced proPLT production and PLT release by MKs in the microfluidic device (live-cell microscopy)
Assay type: cell-based, mouse
Conditions: for PLT release: under both static and physiological shear conditions; for shear-induced proPLT production: physiological shear
Experimental: Devices were coated with a 0.22 μm filtered 10% BSA solution (Millipore, Billerica, Mass.) for 30 minutes to prevent direct cell contact with glass. Primary MKs and media were infused in the first inlet 118 and second inlet 122, respectively, at a rate of 12.5 μL/hour using a two-syringe microfluidic pump (Harvard Apparatus, Holliston, Mass.). When the first outlet 120 is closed, both input solutions are redirected toward the second outlet 124 causing primary MKs to trap.
For shear cultures, MKs were loaded onto ‘naked’ microfluidic devices (only BSA-coated), and the infusion rate was doubled incrementally from 12.5 μL/hr to 200 μL/hr over a 2 hour period. For static cultures, isolated MKs were pipetted into chambers formed by mounting a glass coverslide coated with 3% BSA onto a […] with a 1 cm hole and cultured for 24 hours. Both static and shear cultures were maintained at 37 degrees C. and 5 percent CO2 and examined on a Zeiss Axiovert 200 (Carl Zeiss, Thornwood, N.Y.) equipped with 10× (numerical aperature, 0.30) Plan-Neofluar air objective. Differential interference contrast (DIC) images were obtained using CCD camera (Hamamatsu Photonics, Boston, Mass.) at either 2 second (shear cultures) or 20 minute (static cultures) intervals. Images were analyzed using the Metamorph version 7.7.2.0 image analysis software (Molecular Devices, Sunnyvale, Calif., USA) and ImageJ software version 1.47p. ProPLT extension rates were determined manually for over 200 MKs from at least three independent samples. For PLT spreading experiments, effluent was collected from microfluidic devices after 2 hours and pipetted into uncoated static culture chambers, described above. PLTs were permitted to contact glass by gravity sedimentation and spreading was captured at 5 second intervals over a 5 minute period.
In vivo BM MKs extend proPLTs in the direction of blood flow and release PLTs, proPLTs, large cytoplasmic fragments (prePLTs), and even whole MKs into sinusoidal blood vessels which may be trapping in the pulmonary microvascular bed, or otherwise maturing in the circulation. To determine the effect of physiological shear on PLT production, mouse fetal liver culture-derived (mFLC) MKs were isolated on culture day 4 and characterized by size and ploidy before being infused into the microfluidic device (shown in FIG. 3A).
While shear rates were kept constant, proPLT extension rates varied at different positions along the shaft, predictive of a regulated cytoskeletal driven mechanism of proPLT elongation (shown in FIG. 4C). […]

Structure (SMILES) | PLT release (1 mM EHNA) | shear-induced proPLT production (MKs incubated with 1 mM EHNA prior to infusion in microfluidic device) | PLT release (5 μM Jas) | shear-induced proPLT production (MKs incubated with 5 μM Jas prior to infusion in microfluidic device)
CCCCCC[C@@H]([C@@H](C)O)n1cnc2c(N)ncnc21 (racemic) [EHNA] | inhibited | inhibit | – | –
C/C1=C\[C@H](C)C[C@H](C)OC(=O)C[C@H](c2ccc(O)cc2)NC(=O)[C@@H](Cc2c(Br)[nH]c3ccccc23)N(C)C(=O)[C@H](C)NC(=O)[C@@H](C)C1 [Jas, Jasplankinolide] | – | – | inhibited | inhibit
